Reference: patent publication US9546153B2, “Bicyclic heterocycle substituted pyridyl compounds useful as kinase modulators” (BRISTOL-MYERS SQUIBB COMPANY, priority 2012, dated 2017)
pEC50, pIC50: −log10 of the molar value. Read-outs that look alike come from different tables or passages of the source.

Key:
[1] = molecular target: IRAK4 (Homo sapiens (Human), UniProt Q9NWZ3); experiment: IRAK4 Inhibition Assay; assay type: biochemical; conditions: ATP 500 μM; IRAK4 0.6 nM; 60 min at room temperature
Protocol: The assays were performed in U-bottom 384-well plates. […] The reaction was initiated by the combination of IRAK4 with substrates and test compounds. The reaction was incubated at room temperature for 60 min. and terminated by adding 45 μL of 35 mM EDTA to each sample. The reaction mixture was analyzed on the Caliper LABCHIP® 3000 (Caliper, Hopkinton, Mass.) by electrophoretic separation of the fluorescent substrate and phosphorylated product.

[2] = test system: TLR2 induced IL-6 in peripheral blood mononuclear cells (PBMCs); experiment: PBMC TLR2 Induced IL-6 Assay; assay type: cell-based, human; conditions: human PBMCs, 10 μg/ml lipoteichoic acid for 5 hours, IL-6 by ELISA; for pIC50: value without asterisk, read-out: Cell IC50; for pEC50: EC50 determinations are indicated with an asterisk, read-out: Cell EC50 (asterisk)
Protocol: Peripheral blood mononuclear cells (PBMCs) were isolated from human blood containing the anti-coagulant EDTA (2.5 mM) by centrifugation over a FICOLL® gradient. PBMCs (250000 cells/well) were cultured in assay media (RPMI with 10% heat inactivated FCS) with compounds for 30 minutes at 37° C. in a 5% CO2 incubator. Following pretreatment with compounds, cells were stimulated for 5 hours with 10 μg/ml lipoteichoic acid (Invivogen, San Diego, Calif.), a TLR2 agonist. At the end of the culture, plates were centrifuged at 1800 rpm for 10 minutes to pellet the cells. Supernatants were harvested and analyzed for IL-6 levels by ELISA (BD Biosciences, San Jose, Calif.). Inhibition was calculated as either an IC50 or EC50. EC50 determinations are indicated with an asterisk.

IRAK4, sequence (Q9NWZ3 whole entry, species assumed): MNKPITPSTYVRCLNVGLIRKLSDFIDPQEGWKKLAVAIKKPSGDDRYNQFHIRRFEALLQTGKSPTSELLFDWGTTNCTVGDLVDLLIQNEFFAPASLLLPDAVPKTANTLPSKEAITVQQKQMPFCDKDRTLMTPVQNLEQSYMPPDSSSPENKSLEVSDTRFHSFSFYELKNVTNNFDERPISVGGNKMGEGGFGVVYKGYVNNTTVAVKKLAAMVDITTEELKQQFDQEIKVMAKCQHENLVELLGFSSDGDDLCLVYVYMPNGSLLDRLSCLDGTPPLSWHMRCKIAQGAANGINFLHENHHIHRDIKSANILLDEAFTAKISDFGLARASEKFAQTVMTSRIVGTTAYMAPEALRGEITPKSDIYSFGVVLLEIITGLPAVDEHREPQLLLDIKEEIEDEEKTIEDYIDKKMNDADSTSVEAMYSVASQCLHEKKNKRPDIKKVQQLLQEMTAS

pIC50 [1]	SMILES	pIC50 ([2]; Homo sapiens, PBMC, 5 h)	pEC50 ([2]; Homo sapiens, PBMC, 5 h)	pIC50 [2]
8.38	CC(C)(O)C1CCC(NC(=O)c2cnc(Nc3ccc4ncsc4c3)cc2NC2CCCOC2)CC1 (centres unmarked) [Example 490]		6.56	
8.80	CC(C)Nc1cc(Nc2ccc3ncsc3c2)ncc1C(=O)NC1CCC(C(C)(C)O)CC1 (centres unmarked) [Example 456]	6.47		
8.42	O=C(NC1CCC(O)CC1)c1cnc(Nc2ccc3ncsc3c2)cc1NC1CCCC1F (centres unmarked) [Example 352]			6.61
8.36	CC(C)(O)[C@H](F)CNC(=O)c1cnc(Nc2ccc3ncsc3c2)cc1NC12CCC(NC(=O)c3cccnc3)(CC1)C2 [Example 395]	6.48		
8.07	CCNC(=O)c1ccc(Nc2cc(Nc3ccc4ncsc4c3)ncc2C(=O)NC[C@@H](F)C(C)(C)O)cc1 [Example 322]	6.31		
8.35	CC(O)([C@H](F)CNC(=O)c1cnc(Nc2ccc3ncsc3c2)cc1N[C@@H]1CCC[C@H]1O)C(F)(F)F (some centres unmarked) [Example 334]			6.49
8.62	CC(C)(O)[C@H](F)CNC(=O)c1cnc(Nc2ccc3ncsc3c2)cc1NC1CCCC1(F)F (some centres unmarked) [Example 358]	7.32		
8.10	CC(C)(O)[C@H](F)CNC(=O)c1cnc(Nc2nc3ccnn3cc2F)cc1NC1CCC(F)(F)C1 (some centres unmarked) [Example 392]			6.53
7.77	CC(C)(O)[C@H](F)CNC(=O)c1cnc(Nc2ccc3nccnc3c2)cc1NC1CCCC1O (some centres unmarked) [Example 338]	6.31		
8.29	CC(C)(O)[C@H](F)CNC(=O)c1cnc(Nc2ccc3ncsc3c2)cc1NC1C2CCCC1CCC2 (some centres unmarked) [Example 419]	6.74		
8.15	CC(C)(O)[C@H](F)CNC(=O)c1cnc(Nc2ccc3nccn3n2)cc1NC1CCOCC1F (some centres unmarked) [Example 285]	6.29		
7.94	O=C(NC1CCC(O)CC1)c1cnc(Nc2ccc3nccn3n2)cc1NC1CCC1 (centres unmarked) [Example 282]	6.34		
8.29	CC(C)(F)CNc1cc(Nc2ccc3ncc(C#N)cc3n2)ncc1C(=O)NC[C@@H](F)C(C)(C)O [Example 373]	6.37		
8.68	CC(C)(O)[C@H](F)CNC(=O)c1cnc(Nc2ccc3ncc(F)cc3n2)cc1NC1CC1 [Example 429]	6.89		
8.39	CCNc1cc(Nc2nc3scnc3cc2F)ncc1C(=O)NC[C@@H](F)C(C)(C)O [Example 468]	6.61		
8.06	C[C@@H](CO)Nc1cc(Nc2nc3scnc3cc2F)ncc1C(=O)N[C@H]1CC[C@H](O)CC1 [Example 484]	5.87		
8.92	CC(C)(O)[C@H](F)CNC(=O)c1cnc(Nc2ccc3nccn3n2)cc1NC1CCC(F)C1 (some centres unmarked) [Example 281]			6.45
8.52	CNC(=O)c1ccc(Nc2cc(Nc3ccc4ncsc4c3)ncc2C(=O)NC[C@@H](F)C(C)(C)O)cc1 [Example 319, (R)-6-(benzo[d]thiazol-6-ylamino)-N-(2-fluoro-3-hydroxy-3-methylbutyl)-4-(4-(methylcarbamoyl)phenylamino)nicotinamide]	6.50		
8.74	CC(C)(O)[C@H](F)CNC(=O)c1cnc(Nc2ccc3ncsc3c2)cc1N[C@@H]1CCCC1F (some centres unmarked) [Example 344]			7.42
8.28	CC(C)Nc1cc(Nc2ccn3nccc3c2)ncc1C(=O)NC[C@@H](F)C(C)(C)O [Example 286]	6.38		
8.60	CC(C)(O)[C@H](F)CNC(=O)c1cnc(Nc2ccn3nccc3n2)cc1NC1CC2CC2C1(F)F (some centres unmarked) [Example 452]	6.62		
8.33	CC(C)(O)[C@H](F)CNC(=O)c1cnc(Nc2ccn3nccc3n2)cc1NC1CC1 [Example 236]	6.46		
8.31	CC(C)(O)[C@H](F)CNC(=O)c1cnc(Nc2ccc3ncsc3c2)cc1Nc1ccc(C(=O)NCCO)cc1 [Example 325]	6.07		
8.66	CC(C)(O)[C@H](F)CNC(=O)c1cnc(Nc2ccc3ncoc3c2)cc1N[C@@H]1CCCC1F (some centres unmarked) [Example 355]			6.63
8.44	CC(C)(O)[C@H](F)CNC(=O)c1cnc(Nc2ccn3ncc(F)c3c2)cc1NC1CC(F)(F)C1 [Example 420]	6.74		
9.00	CC(C)(O)[C@H](F)CNC(=O)c1cnc(Nc2ccc3ncsc3n2)cc1NC1CCOCC1 [Example 312]	7.54		
8.38	CC(C)(O)[C@H](F)CNC(=O)c1cnc(Nc2ccn3ncc(F)c3n2)cc1NC1CCC1 [Example 252]	6.76		
8.82	CNC(=O)[C@H]1CC[C@H](NC(=O)c2cnc(Nc3ccc4ncsc4n3)cc2NC2CCOCC2)CC1 [Example 510]		7.55	
8.37	CC(C)(O)C(F)(F)CNC(=O)c1cnc(Nc2nc3scnc3cc2F)cc1NC1CC1 [Example 493]		6.44	

More lines, now with the values behind:

SMILES	pIC50 [1]	pIC50 ([2]; Homo sapiens, PBMC, 5 h)	pEC50 ([2]; Homo sapiens, PBMC, 5 h)	pIC50 [2]
CC(C)(O)[C@H](F)CNC(=O)c1cnc(Nc2ccc3nccnc3c2)cc1NC1CCCOC1 (some centres unmarked) [Example 71]	7.86	6.38		
CC(C)(F)CNc1cc(Nc2ccc3ncccc3c2)ncc1C(=O)NC[C@@H](F)C(C)(C)O [Example 127]	8.39	6.33		
CC(C)(O)[C@H](F)CNC(=O)c1cnc(Nc2ccc3ncsc3c2)cc1NC1CC1 [Example 42]	8.57	6.64		
CC(C)Nc1cc(Nc2ccc3nonc3c2)ncc1C(=O)NC[C@@H](F)C(C)(C)O [Example 45]	8.12	6.05		
CC(=O)NCCCNC(=O)c1cnc(Nc2ccc3ncsc3c2)cc1NC(C)C [Example 199]	8.08	6.26		
CC(C)Nc1cc(Nc2ccc3ncsc3c2)ncc1C(=O)NCC[C@@H](C)NC(=O)N(C)c1ccccc1 [Example 208]	8.43	6.19		
CC(C)(O)[C@H](F)CNC(=O)c1cnc(Nc2ccc3ncsc3c2)cc1NC1C2CCCC21 (some centres unmarked) [Example 108]	8.64	6.29		
CC(C)Nc1cc(Nc2ccc3ncsc3c2)ncc1C(=O)N[C@H]1CC[C@H](C(=O)NC2(C#N)CC2)CC1 [Example 213]	8.51	6.39		
CC(=O)N[C@@H](C)CCNC(=O)c1cnc(Nc2ccc3ncsc3c2)cc1NC(C)C [Example 178]	7.86	6.39		
CC(C)(O)[C@H](F)CNC(=O)c1cnc(Nc2ccc3cnccc3n2)cc1NC1CC1 [Example 79]	8.25	7.32		
O=C(NC[C@@H](F)CO)c1cnc(Nc2ccc3ncsc3c2)cc1NC1CCCC1 [Example 150]	8.23	6.40		
CC(C)Nc1cc(Nc2ccc3ncsc3c2)ncc1C(=O)NC[C@@H](F)C(O)C1CC1 (some centres unmarked) [Example 16]	8.28			6.23
CC(C)Nc1cc(Nc2ccc3ncsc3c2)ncc1C(=O)NCC[C@@H](C)NC(=O)[C@@H]1CC[C@H](F)C1 [Example 198]	8.59	6.51		
CCCNc1cc(Nc2ccc3ncsc3c2)ncc1C(=O)NC[C@@H](F)C(C)(C)O [Example 159]	8.49	6.84		
CC(C)Nc1cc(Nc2ccc3ncsc3c2)ncc1C(=O)N[C@H]1CC[C@H](NC(=O)N2CCOCC2)CC1 [Example 205]	8.74	6.77		
CC(C)Nc1cc(Nc2ccc3ncsc3c2)ncc1C(=O)NC12CCC(N)(CC1)CC2 [Example 223]	8.38	6.62		
CC(O)[C@H](F)CNC(=O)c1cnc(Nc2ccc3ncsc3c2)cc1NC1CCCC1 (some centres unmarked) [Example 28]	8.11	6.71		
CC(C)Nc1cc(Nc2ccc3ncsc3c2)ncc1C(=O)N[C@H]1CC[C@H](NC(=O)c2cccnc2)CC1 [Example 202]	8.62	6.81		
CC1(O)CCC(Nc2cc(Nc3ccc4ncsc4c3)ncc2C(=O)NC[C@@H](F)C(C)(C)O)C1 (some centres unmarked) [Example 50]	8.17	6.24		
O=C(NCCC1(O)CCC1)c1cnc(Nc2ccc3ncsc3c2)cc1NC1CC1 [Example 10]	8.29	6.94		
CCOC(=O)C1CC(Nc2cc(Nc3ccc4ncsc4c3)ncc2C(=O)NC[C@@H](F)C(C)(C)O)C1 (some centres unmarked) [Example 70]	8.06	6.28		
CC(C)(O)[C@H](F)CNC(=O)c1cnc(Nc2ccc3ncsc3c2)cc1NCC(F)(F)C(C)(C)O [Example 107]	8.41	6.76		
CC(C)(O)[C@H](F)CNC(=O)c1cnc(Nc2ccc3ncsc3c2)cc1NCC1CCCO1 (some centres unmarked) [Example 94]	7.89			6.47
CC(C)(O)[C@H](F)CNC(=O)c1cnc(Nc2ccc3ncsc3c2)cc1N[C@H]1CCC(CCO)C1 (some centres unmarked) [Example 66]	8.64			7.24
CC(C)(O)[C@H](F)CNC(=O)c1cnc(Nc2ccc3ncsc3c2)cc1NC1CC2CCC1C2 (some centres unmarked) [Example 89]	8.59	7.49		
CC(Nc1cc(Nc2ccc3ncsc3c2)ncc1C(=O)NC[C@@H](F)C(C)(C)O)C(F)(F)F (some centres unmarked) [Example 91]	8.43	7.19		
